Laboratory results reported in the NIST ThermoML archive (doi:10.1021/je060486k).

Test: cn = amount concentration of the nth substance listed, in mol/dm3
Conditions: 298.15 K; for surface tension liquid-gas: Wilhelmy plate method; for kinematic viscosity / mass density / speed of sound: 101 kPa, Liquid; for kinematic viscosity: Capillary tube (Ostwald / Ubbelohde) method

CCCCCCCCCC[N+](C)(C)C.[Br-] [N,N,N-trimethyl-1-decanaminium bromide] + O
Conditions	kinematic viscosity [m2/s]	mass density [kg/m3]	speed of sound [m/s]	surface tension liquid-gas [mN/m]
c1 = 0.001	8.975e-07	997.11	1497.3	65.4
c1 = 0.005	8.99e-07	997.25	1497.8	60.1
c1 = 0.01	9.048e-07	997.37	1498.7	57.6
c1 = 0.02	9.14e-07	997.58	1500.8	49.7
c1 = 0.03	9.224e-07	997.85	1502.6	43.4
c1 = 0.04	9.35e-07	998.06	1504.3	38
c1 = 0.05	9.449e-07	998.33	1506.3	36.9
c1 = 0.06	9.56e-07	998.52	1508	36.1
c1 = 0.07	9.642e-07	998.79	1509.2	35.5
c1 = 0.08	9.78e-07	999	1509.7	35.2
c1 = 0.1	1.002e-06	999.37	1510.1	35.2
c1 = 0.12	1.024e-06	999.77	1510.6	35
c1 = 0.15	1.062e-06	1000.4	1511.1	35.2
c1 = 0.2	1.117e-06	1001.22	1511.7	35
c1 = 0.25	1.181e-06	1002.09	1512.4	35.1

CCCCCC[N+](C)(C)C.[Br-] [hexyltrimethylammonium bromide] + O
Conditions	kinematic viscosity [m2/s]	mass density [kg/m3]	speed of sound [m/s]	surface tension liquid-gas [mN/m]
c1 = 0.1	9.149e-07	1000.32	1510.6	51.6
c1 = 0.2	9.406e-07	1003.85	1524.9	44.3
c1 = 0.3	9.727e-07	1006.97	1537.3	41.1
c1 = 0.4	1.011e-06	1010.42	1550.5	38.3
c1 = 0.45	1.033e-06	1012.06	1557.7	36.8
c1 = 0.5	1.056e-06	1013.74	1562.9	35.8
c1 = 0.6	1.108e-06	1017.19	1575.3	34
c1 = 0.7	1.166e-06	1021.02	1588.6	32.5
c1 = 0.8	1.23e-06	1024.21	1599.1	31.2
c1 = 0.9	1.301e-06	1027.68	1610	30.5
c1 = 1	1.379e-06	1031.33	1620.6	29.9
c1 = 1.1	1.463e-06	1034.12	1628.1	29.5
c1 = 1.3	1.65e-06	1041.07	1644.8	29.3
c1 = 1.5	1.863e-06	1047.62	1652.1	29.1
c1 = 1.7	2.101e-06	1054.38	1660	29.1
c1 = 2	2.508e-06	1064.23	1670.3	28.9

CCCCCCCC[N+](C)(C)C.[Br-] [octyl trimethyl ammonium bromide] + O
Conditions	kinematic viscosity [m2/s]	mass density [kg/m3]	speed of sound [m/s]	surface tension liquid-gas [mN/m]
c1 = 0.02	8.99e-07	997.62	1500.1	69.4
c1 = 0.04	9.033e-07	998.2	1503.1	63.1
c1 = 0.06	9.083e-07	998.73	1506.3	59.5
c1 = 0.08	9.14e-07	999.23	1510	54.6
c1 = 0.1	9.2e-07	999.68	1513.1	51.1
c1 = 0.12	9.276e-07	1000.25	1516.4	48.9
c1 = 0.14	9.355e-07	1000.79	1520.3	46.5
c1 = 0.16	9.441e-07	1001.62	1522.7	44
c1 = 0.18	9.534e-07	1001.9	1525.8	41.7
c1 = 0.2	9.636e-07	1002.54	1529.6	39.8
c1 = 0.3	1.025e-06	1005	1540	36.4
c1 = 0.4	1.103e-06	1008.09	1546.5	35.8
c1 = 0.5	1.2e-06	1010.5	1549.2	35.5
c1 = 0.6	1.315e-06	1013.19	1552.2	35.4
c1 = 0.8	1.598e-06	1018.07	1557.4	35.2
c1 = 1	1.953e-06	1022.98	1562.7	35.1

O [water] + CCCCCCCCCC[N+](C)(C)C.[Br-]
c2 = 0
Conditions	kinematic viscosity [m2/s]	surface tension liquid-gas [mN/m]
–	8.956e-07	72.5

O [water] + CCCCCCCC[N+](C)(C)C.[Br-]
c2 = 0
Conditions	kinematic viscosity [m2/s]	surface tension liquid-gas [mN/m]
–	8.957e-07	72.5

O [water] + CCCCCC[N+](C)(C)C.[Br-]
c2 = 0
Conditions	kinematic viscosity [m2/s]	surface tension liquid-gas [mN/m]
–	8.957e-07	72.5
